Where two headings read alike, the source gives them in different places.
Legend:
[1] = system: verschiedene Virenstämme; experiment: Virus test following ISO 21702, photodynamic effect of a SolGel coating on different virus strains; settings: read-out: Log10 Reduktion Probe
[2] = system: S.aureus; type: cell-based; settings: for Log10 Reduktion Dunkelkontrolle 1 mM / Log10 Reduktion Dunkelkontrolle 2 mM: dark; for Log10 Reduktion Wirksamkeit 1 mM / Log10 Reduktion Wirksamkeit 2 mM: light
[3] = system: Bakterien; experiment: Photostability: bacteria test (ISO 22196) after simulated long-term illumination (18 mW/cm^2, 405 nm); type: cell-based; settings: 4 h, Rezeptur 2 (Borsäure) on Melamin, 2 mM
Text: (§1) Die Bestimmung der antimikrobiellen Aktivität erfolgte nach einer modifizierten Version der ISO 22196:2011-08 ("Messung von antibakterieller Aktivität auf Kunststoff- und anderen porenfreien Oberflächen", Ausgabedatum: 2011-08).
(§2) Bei der Testdurchführung wurde ein dünner Flüssigkeitsfilm, in dem die Bakterien enthalten sind (1,25 x 10^4 /cm2), direkt auf die Probekörper (2,5 cm x 2,5 cm) aufgebracht. Direkt nach Beimpfung wurden von der Nullprobe die Bakterien von den Probekörperoberflächen mittels Ultraschall und Vortexen abgelöst und die Keimzahl (KBE (engl. CFU), Kolonie-bildende Einheit) bestimmt (t0-Wert). Ein weiterer Satz Nullproben und antimikrobiell ausgestatteter Proben wurden mit Bakterien im Flüssigkeitsfilm bei Raumtemperatur inkubiert. Nach 4 h wurden überlebende Bakterien von den Probekörperoberflächen mittels Ultraschall und Vortexen abgelöst und die Keimzahl bestimmt (t4-Wert).
(§3) Im Unterschied zu der in der ISO 22196:2011-08 beschriebenen Methode wurde das Inokulum nicht mit einer Folie abgedeckt und die Inkubationszeit von 24 auf 4 Stunden reduziert. Weiterhin wurden die Platten der Proben 3 und 4 mit Licht mit einer Intensität von 300 µW/cm2 belichtet.
Zur Bewertung der Photostabilität des Farbstoffs S-25a (2 mM) in der Beschichtung wurden beschichtete Flächen mit 18 mW/cm^2 (405 nm, ca. 200 Fache Raumlichtintensität, Zeitrafferversuch) bestrahlt. So wurde eine Echtzeit-Photostabilität von 2 Jahren simuliert.
Der Bakterientest wurde in Anlehnung an ISO 22196 nach oben beschriebener Methode durchgeführt. Die Ergebnisse sind in der Tabelle 61 zusammengefasst. Tabelle 61: Mikrobiologische Wirksamkeit nach simulierter Photobelastung für 1, 2, 3, 6, 12 und 24 Monate

[4] = system: verschiedene Bakterienstämme; experiment: Bacteria test following modified ISO 22196, photodynamic effect of a SolGel coating on different bacterial strains; type: cell-based; settings: Rezeptur 5 coating on Melamin, 2 mM, 4 h
Text: as §1, §2, §3
Die Ergebnisse sind Tabelle 53 dargestellt. Tabelle 53: Photodynamische Wirkung einer SolGel Beschichtung gegen verschiedene Bakterienstämme

[5] = Immersion test: binding / wash-out of photocatalysts from SolGel coatings (1 h deionised water, UV-VIS signal loss); type: physicochemical; settings: Rezeptur 5 coating on glass, dye 10 bis 40 mM; 1 h deionised water pH 6 ± 1, 22 ± 3 °C; relative UV-VIS signal loss at absorption maximum
Protocol: Für alle Untersuchungen wurden nach Beispiel 8 beschichtete Glasträger verwendet.
Um das Auswaschen der verschiedenen Farbstoffe in den Sol-Gel-Beschichtungen zu beurteilen wurde ein Immersionstest in vollentsalztem Wasser mit einem pH-Wert von (6 ± 1) und einer Wassertemperatur von (22 ± 3) °C für eine Stunde durchgeführt. Dazu wurden zunächst Schichten (Rezeptur 5, Beispiel 4, aufgefüllt mit 3,0 mL 2-Propanol; sh. Tabelle 3) mit erhöhter Farbstoffkonzentration (10 bis 40 mM; um die notwendige Auflösung bei der dünnen Schicht zu erreichen) auf Glas-Objektträgern erzeugt. Diese wurden nach dem Ablüften bei Raumtemperatur (30 min) eine Stunde bei 60°C nachgehärtet. Anschließend wurden die Schichten direkt im UV-VIS-Spektrometer vermessen. Die Ausgangswerte (Absorptionsmaximum des jeweiligen Farbstoffs) sollten dabei zwischen 0,05 A.U. und 1,50 A.U. liegen.
Nach einer Stunde in VE-Wasser wurden die Prüfkörper getrocknet und erneut gemessen. Aus den beiden Messungen wurde ein relativer Signalverlust in Prozent bei dem farbstoffspezifischen Absorptionsmaximum bestimmt.
Dieser Immersionstest diente dazu, das Auswaschverhalten verschiedener Farbstoffe aus Beschichtungssystemen zu beurteilen. Weiter soll er dabei helfen, verschiedene Farbstoffklassen oder verschiedene Farbstoffderivate einer Farbstoffklasse bezüglich dieser Charakteristik miteinander zu vergleichen. Die Ergebnisse sind in den folgenden Tabellen sortiert nach Stoffgruppen zusammengefasst: […]

[6] = system: I. monocytoqenes; experiment: Bacteria test following modified ISO 22196, photodynamic effect of different photocatalysts in the SolGel coating on I. monocytoqenes; type: cell-based; settings: Rezeptur 4 nach Beispiel 5 on Melamin; 4 h, dark
Text: as §1, §2, §3
(§4) Der Bakterientest wurde in Anlehnung an ISO 22196 nach oben beschriebener Methode durchgeführt. Die Ergebnisse sind Tabelle 57a bis 57b dargestellt. Tabelle 57a: Photodynamische Wirkung verschiedener Katalysatoren in der SolGel Beschichtung gegen S.aureus

[7] = system: S. enterica; experiment: Bacteria test following modified ISO 22196, photodynamic effect of different photocatalysts in the SolGel coating on S. enterica; type: cell-based; settings: Rezeptur 4 nach Beispiel 5 on Melamin, 4 h
Text: as §1, §2, §3, §4

[8] = system: Bakterien; experiment: Room light tests (Raumlichtversuche): antimicrobial efficacy at 10 µW/cm^2 for 24 h; type: cell-based; settings: Farbstoff 5 mM, coating Rezeptur 3, Beispiel 2a (2,5 eq aqueous boric acid, 50 mM)
Protocol: Um die antimikrobielle Wirksamkeit in einem realen Szenario abzuschätzen, wurden sogenannte Raumlichtversuche durchgeführt. Dazu wurden die mit Bakterien versetzten Probenträger mit einer, für Innenräume repräsentativen Lichtintensität von 10 µW/cm^2 für einen Zeitraum von 24 h bestrahlt.
Herstellung der Beschichtung erfolgte gemäß Beispiel 2a (2,5 eq wässrige Borsäure, 50 mM), mit Rezeptur 3. Die Ergebnisse sind in der Tabelle 63 zusammengefasst. Tabelle 63: Antimikrobielle Wirksamkeit bei Raumlichtbedingungen

[9] = Rezeptur 2, Verdünnung mit IPA 1:2
[10] = Rezeptur 2, Verdünnung mit IPA 1:5
[11] = Rezeptur 2, Verdünnung mit IPA 1:8

CC(C)(O)c1cc[n+](CC2=Cc3cccc4cccc(c34)C2=O)cc1 [S-25a]
log reduction at 2000 µM ([1]; 83 min): 5.5
log reduction at 2000 µM ([1]; Influenza A virus, H1N1, 83 min): 3.8
log reduction at 2000 µM ([1]; unidentified adenovirus, 83 min): 2
Log10 Reduktion Dunkelkontrolle 1 mM [2, 9]: 0,1±0,4
Log10 Reduktion Dunkelkontrolle 2 mM [2, 9]: 0,0±0,0
Log10 Reduktion Wirksamkeit 1 mM [2, 9]: 3,0±0,2
Log10 Reduktion Wirksamkeit 2 mM [2, 9]: 3,3±0,5
Log10 Reduktion Dunkelkontrolle 1 mM [2, 10]: 0,0±0,2
Log10 Reduktion Dunkelkontrolle 2 mM [2, 10]: 0,1±0,1
Log10 Reduktion Wirksamkeit 1 mM [2, 10]: 2,0±0,2
Log10 Reduktion Wirksamkeit 2 mM [2, 10]: 2,8±0,2
Log10 Reduktion Dunkelkontrolle 1 mM [2, 11]: 0,0±0,2
Log10 Reduktion Dunkelkontrolle 2 mM [2, 11]: 0,0±0,1
Log10 Reduktion Wirksamkeit 1 mM [2, 11]: 1,5±0,1
Log10 Reduktion Wirksamkeit 2 mM [2, 11]: 2,7±0,6
log reduction at 2000 µM ([3]; 2 Monate simulated, dark, read-out: Log10 Reduktion nach x Monaten simulierter Belastung: 2, Dunkelkontrolle): 0.2
log reduction at 2000 µM ([3]; 3 Monate simulated, dark, read-out: Log10 Reduktion nach x Monaten simulierter Belastung: 3, Dunkelkontrolle): 0.2
log reduction at 2000 µM ([3]; 24 Monate simulated, dark, read-out: Log10 Reduktion nach x Monaten simulierter Belastung: 24, Dunkelkontrolle): 0.2
log reduction at 2000 µM ([3]; pre-illumination 18 mW/cm^2, 405 nm, 0 Monate, read-out: Log10 Reduktion nach x Monaten simulierter Belastung: Start (0), Probe): 4.7
log reduction at 2000 µM ([3]; pre-illumination 18 mW/cm^2, 405 nm, 1 Monat simulated, read-out: Log10 Reduktion nach x Monaten simulierter Belastung: 1, Probe): 4.6
log reduction at 2000 µM ([3]; pre-illumination 18 mW/cm^2, 405 nm, 2 Monate simulated, read-out: Log10 Reduktion nach x Monaten simulierter Belastung: 2, Probe): 4.3
log reduction at 2000 µM ([3]; pre-illumination 18 mW/cm^2, 405 nm, 3 Monate simulated, read-out: Log10 Reduktion nach x Monaten simulierter Belastung: 3, Probe): 4.2
log reduction at 2000 µM ([3]; pre-illumination 18 mW/cm^2, 405 nm, 6 Monate simulated, read-out: Log10 Reduktion nach x Monaten simulierter Belastung: 6, Probe): 4.3
log reduction at 2000 µM ([3]; pre-illumination 18 mW/cm^2, 405 nm, 12 Monate simulated, read-out: Log10 Reduktion nach x Monaten simulierter Belastung: 12, Probe): 4.3
log reduction at 2000 µM ([3]; pre-illumination 18 mW/cm^2, 405 nm, 24 Monate simulated, read-out: Log10 Reduktion nach x Monaten simulierter Belastung: 24, Probe): 4.3
log reduction at 2000 µM ([4]; Acinetobacter baumannii, ATCC15308, A. baumanii ATCC 15308 (Gram negativ), 300 µW/cm2, read-out: Log10 Reduktion Probe): > 4
log reduction at 2000 µM ([4]; Acinetobacter baumannii, ATCC15308, A. baumanii ATCC 15308 (Gram negativ), dark, read-out: Log10 Reduktion Dunkelkontrolle): 0.1
log reduction at 2000 µM ([4]; Enterococcus faecium, E.faecium EDCC 5271 (Gram positiv), 300 µW/cm2, read-out: Log10 Reduktion Probe): > 4
log reduction at 2000 µM ([4]; Enterococcus faecium, E.faecium EDCC 5271 (Gram positiv), dark, read-out: Log10 Reduktion Dunkelkontrolle): 0
log reduction at 2000 µM ([4]; Staphylococcus aureus, ATCC6538, S.aureus ATCC 6538 (Gram positiv), 300 µW/cm2, read-out: Log10 Reduktion Probe): > 4
log reduction at 2000 µM ([4]; Staphylococcus aureus, ATCC6538, S.aureus ATCC 6538 (Gram positiv), dark, read-out: Log10 Reduktion Dunkelkontrolle): 0.1
Verlust durch Auswaschen [5]: 8%
I. monocytoqenes Log10 Reduktion Dunkelkontrolle [6]: 0,0±0,1
S. enterica Log10 Reduktion Probe ([7]; 300 µW/cm2): 2,5±0,4
S. enterica Log10 Reduktion Dunkelkontrolle ([7]; dark): 0,0±0,1
log reduction at 5000 µM ([8]; 24 h, dark control, read-out: Log10 Reduktion Dunkelkontrolle): 1.1
log reduction at 5000 µM ([8]; illuminated 10 µW/cm^2 for 24 h, read-out: Log10 Reduktion 24 h): 2.6
